In patent US20210087191A1, “SUBSTITUTED 3-ISOBUTYL-9,10-DIMETHOXY-1,3,4,6,7,11B-HEXAHYDRO-2H-PYRIDO[2,1-a]ISOQUINOLIN-2-OL COMPOUNDS, THEIR [sequence], AND USE THEREOF” (DISPERSOL TECHNOLOGIES, LLC, priority 2020, published 2021):
Converted amounts (≈) assume the structure as drawn. Like-named read-outs stand apart in the source and are kept apart here.

How the values were obtained:
[1] = cited from earlier work
[2] = compared to the other three isomers; cited from earlier work
[3] = in vivo; cited from earlier work
[4] = test system: human cryopreserved hepatocytes; test: Heps. stability assay, human cryopreserved hepatocytes; assay type: in vitro ADME
Experimental: (§1) Metabolism of compound(s) to release (+)-α-DTHBZ was determined by the half-life (t1/2) and intrinsic clearance (CIint) in human cryopreserved hepatocytes using tandem mass spectrometry (LC-MS/MS).

[5] = Stability in human plasma (PS), LC-MS/MS; assay type: in vitro ADME; settings: for half-life: read-out: Human PS t1/2
Experimental: (§2) Metabolism of compound(s) to release (+)-α-DTHBZ was determined by the half-life (t1/2) and intrinsic clearance (CIint) in human plasma (PS) and liver microsomes (LM) using tandem mass spectrometry (LC-MS/MS).

[6] = Metabolic stability in human liver microsomes (LM), LC-MS/MS (first table); assay type: in vitro ADME; settings: for microsomal CLint: Table 1, read-out: Human LM CLint (μL/min/mg protein); for half-life: Table 1, read-out: Human LM t1/2
Experimental: as §2

[7] = Kinetic solubility in PBS buffer; assay type: physicochemical; settings: aqueous buffer, kinetic from dmso stock, compound suspended at 300 μM, 25° C.
Experimental: Kinetic solubility was determined by suspending compound at 300 μM at pH 1.2 and 7.4 in PBS buffer. The suspension was equilibrated by shaking at 25° C. at 1100 RPM for 2 hours and then pH was measured following filtration. The filtrate was then diluted by an appropriate factor (e.g. 100-fold). Quantitation was done by LC-MS/MS with reference to a standard solution.

[8] = LM stability assay, human (second table); assay type: in vitro ADME; settings: human liver microsomes, Table 2; for microsomal CLint: read-out: LM stability assay Human Clint (μL/min/mg protein); for half-life: read-out: LM stability assay Human t1/2
Experimental: Metabolism of compound(s) to release (+)-α-DTHBZ was determined by the half-life (t1/2) and intrinsic clearance (CIint) in human liver microsomes (LM) using tandem mass spectrometry (LC-MS/MS).

[9] = Permeability in Caco-2 cell monolayer; assay type: in vitro ADME; settings: human; for efflux ratio: Caco-2; for Papp A→B: Caco-2, apical to basolateral; for Papp B→A: Caco-2, basolateral to apical
Experimental: The intestinal permeability of compound(s) was evaluated in Caco-2 cells by assessing transport across the cell monolayer in the apical to basolateral (A-B) direction. Active efflux was also assessed by measuring transport in the basolateral to apical (BA) direction which enables evaluation of the efflux ratio. Analysis of transport is quantified by tandem mass spectrometry (LC-MS/MS).

[10] = Heps. stability assay, human cryopreserved hepatocytes; assay type: in vitro ADME; settings: for microsomal CLint: read-out: Heps. stability assay Human Clint (μL/min/mg protein); for half-life: read-out: Heps. stability assay Human t1/2
Experimental: as §1

[11] = pH 1.2, PBS buffer, read-out: Kinetic Solubility pH = 1.2 (300 μM)
[12] = pH 7.4, PBS buffer, read-out: Kinetic Solubility pH = 7.4 (300 μM)

Compound | Cmax (time) of (+)-α-DHTBZ formed from Valbenazine ([1]; after Valbenazine, hydrolysis of the valine ester) [h] | Tmax of (+)-α-DHTBZ after the administration of Valbenazine ([1]; after administration of Valbenazine) [h] | off-target affinity [2] | median Tmax [3] [h] | Heps. stability assay Human t1/2 (min) [4] | Human PS t1/2 (min) [5] | microsomal CLint [6] [µL/min/mg] | half-life [6] [h] | solubility kinetic at 2 h [7, 11] [µM] | solubility kinetic at 2 h [7, 12] [µM] | LM stability assay Human t1/2 (min) [8] | efflux ratio [9] | Papp A→B [9] [×10⁻⁶ cm/s] | Papp B→A [9] [×10⁻⁶ cm/s] | half-life [5] [h] | microsomal CLint [8] [µL/min/mg] | half-life [8] [h] | microsomal CLint [10] [µL/min/mg] | half-life [10] [h]
COc1cc2c(cc1OC)[C@H]1C[C@@H](O)[C@H](CC(C)C)CN1CC2 [(+)-α-DHTBZ, 2R,3R,11bR-dihydrotetrabenazine] | 4 to 8 | 4 to 8 | no off-target affinity |  |  |  |  |  |  |  |  |  |  |  |  |  |  |  | 
[2H]C([2H])([2H])Oc1cc2c(cc1OC([2H])([2H])[2H])C1CC(=O)C(CC(C)C)CN1CC2 (stereo not shown) [Austedo®] |  |  |  | 3 to 4 |  |  |  |  |  |  |  |  |  |  |  |  |  |  | 
COc1cc2c(cc1OC)[C@H]1C[C@@H](OC(=O)CCC(=O)O)[C@H](CC(C)C)CN1CC2 [Example 2, 4-[[(2R,3R,11bR)-9,10-dimethoxy-3-(2-methylpropyl)-1H,2H,3H,4H,6H,7H,11bH-pyrido[2,1-a]isoquinolin-2-yl]oxy]-4-oxobutanoic acid] |  |  |  |  | ∞ | ∞ | < 0.79 | > 14.7 | 281 (≈ 118 µg/mL) | 295 (≈ 124 µg/mL) | ∞ | 2.54 | 8.67 | 22 |  |  |  |  | 
COc1cc2c(cc1OC)[C@H]1C[C@@H](OC(=O)c3cncc(C(=O)O)c3)[C@H](CC(C)C)CN1CC2 [Example 6, 5-([[(2R,3R,11bR)-9,10-dimethoxy-3-(2-methylpropyl)-1H,2H,3H,4H,6H,7H,11bH-pyrido[2,1-a]isoquinolin-2-yl]oxy]carbonyl)pyridine-3-carboxylic acid] |  |  |  |  | ∞ |  | < 0.35 | > 32.9 | 276 (≈ 130 µg/mL) | 294 (≈ 138 µg/mL) |  | 25.1 | 0.68 | 17.1 | > 44.7 | 1.67 | 13.4 |  | 
COc1cc2c(cc1OC)[C@H]1C[C@@H](OC(=O)/C=C/C(=O)N[C@@H](Cc3ccccc3)C(=O)O)[C@H](CC(C)C)CN1CC2 [Example 12, (2S)-2-[(2E)-4-[[(2R,3R,11bR)-9,10-dimethoxy-3-(2-methylpropyl)-1H,2H,3H,4H,6H,7H,11bH-pyrido[2,1-a]isoquinolin-2-yl]oxy]-4-oxobut-2-enamido]-3-phenylpropanoic acid] |  |  |  |  |  |  | 1.42 | 11.5 | 320 (≈ 181 µg/mL) | 306 (≈ 173 µg/mL) |  | 85.4 | 0.13 | 11.3 | 0.238 | 2.38 | 8.91 | 6.27 | 3.69
COc1cc2c(cc1OC)[C@H]1C[C@@H](OC(=O)/C=C\C(=O)N[C@H](C(=O)O)C(C)C)[C@H](CC(C)C)CN1CC2 [Example 13, (2S)-2-[(2Z)-4-[[(2R,3R,11bR)-9,10-dimethoxy-3-(2-methylpropyl)-1H,2H,3H,4H,6H,7H,11bH-pyrido[2,1-a]isoquinolin-2-yl]oxy]-4-oxobut-2-enamido]-3-methylbutanoic acid] |  |  |  |  |  |  | 2.17 | 5.76 | 303 (≈ 156 µg/mL) | 300 (≈ 155 µg/mL) |  | > 402 | < 0.01 | 4.02 | 2.38 | 0.35 | 51.1 | 4.75 | 4.89
